Counter-ions that a name gives are not always drawn.
Structure (SMILES)	melting point
Cc1cccc(C)c1C(CN(Cc1ccccc1)Cc1ccccc1)OCCCc1c(F)cccc1F (stereo not shown) (as salt: hydrochloride) [Example 24, N-[2-[3-(2,6-difluorophenyl)propoxy]-2-(2,6-dimethylphenyl)ethyl]-N,N-bis(benzyl)amine]	108 °C
Cc1cccc(C)c1C(CNCc1ccccc1)OCCCc1c(F)cccc1F (stereo not shown) (as salt: hydrochloride) [Example 23, N-[2-[3-(2,6-difluorophenyl)propoxy]-2-(2,6-dimethylphenyl)ethyl]-N-benzylamine]	176 °C
Cc1cccc(C)c1C(CN1CCCCC1)NCCCc1c(F)cccc1F (stereo not shown) (as salt: hydrochloride) [Example 35, [3-(2,6-difluorophenyl)propyl]-[1-(2,6-dimethylphenyl)-2-piperidin-1-ylethyl]amine]	145 °C
Cc1cccc(C)c1C(CN(C)CC1CC1)OCCCc1c(F)cccc1F (stereo not shown) [Example 10, N-[2-[3-(2,6-difluorophenyl)propoxy]-2-(2,6-dimethylphenyl)ethyl]-N-cyclopropylmethyl-N-methylamine]	78 °C
Cc1cccc(C)c1C(C[N+](C)(C)C)OCCCc1c(F)cccc1F.[I-] (stereo not shown)	190 °C
C=C(C)C1CC=C(CNCC(OCCCc2c(F)cccc2F)c2c(C)cccc2C)CC1 (stereo not shown) (as salt: hydrochloride) [Example 25, N-[2-[3-(2,6-difluorophenyl)propoxy]-2-(2,6-dimethylphenyl)ethyl]-N-(4-isopropenylcyclohexen-1-ylmethyl)amine]	155 °C

Continued, values first:

melting point	Structure (SMILES)
> 200 °C	Cc1cccc(C)c1C(CN1CCCCC1)OCCCc1c(F)cccc1F (stereo not shown) (as salt: hydrochloride) [Example 14, 1-[2-[3-(2,6-difluorophenyl)propoxy]-2-(2,6-dimethylphenyl)ethyl]piperidine]
152 to 154 °C	Cc1cccc(C)c1C(CN1CCCCC1)OCc1ccc(Br)cc1 (stereo not shown) (as salt: hydrochloride) [Example 39, 1-[2-(4-bromobenzyloxy)-2-(2,6-dimethylphenyl)ethyl]piperidine]
225 to 227 °C	Cc1cccc(C)c1C(CN1CCCCC1)OCc1c(Cl)cccc1Cl (stereo not shown) (as salt: hydrochloride) [Example 41, 1-[2-(2,6-dichlorobenzyloxy)-2-(2,6-dimethylphenyl)ethyl]piperidine]
197 to 199 °C	Cc1cccc(C)c1C(CN1CCCCC1)OCc1ccccc1 (stereo not shown) (as salt: hydrochloride) [Example 38, 1-[2-benzyloxy-2-(2,6-dimethylphenyl)ethyl]piperidine]
183 to 185 °C	Cc1cccc(C)c1C(CN1CCCCC1)OCc1c(F)cccc1F (stereo not shown) (as salt: hydrochloride) [Example 42, 1-[2-(2,6-difluorobenzyloxy)-2-(2,6-dimethylphenyl)ethyl]piperidine]
222 to 224 °C	Cc1cccc(C)c1C(CN1CCCCC1)OCc1ccc(Br)cc1Cl (stereo not shown) (as salt: hydrochloride) [Example 43, 1-[2-(2-chloro-4-bromobenzyloxy)-2-(2,6-dimethylphenyl)ethyl]piperidine]
134 to 135 °C	Cc1cccc(C)c1C(CN1CCCCC1)OCc1ccc(Cl)cc1 (stereo not shown) (as salt: hydrochloride) [Example 40, 1-[2-(4-chlorobenzyloxy)-2-(2,6-dimethylphenyl)ethyl]piperidine]

Reference: patent US6770636B2, “Phenyl-and phenylalkyl-substituted ethanolamines and ethylenediamines” (Boehringer Ingelheim Pharma KG, priority 2000, dated 2004)
